Laboratory results published in patent publication US20070270441A1, “Combination” (Altana Pharma AG, priority 2001, published 2007).
“Also recorded” adds a separate entry of the source.

How the values were obtained:
[1] = system: Collagen-induced arthritis (CIA) in DBA/1 mice; assay: Collagen-induced arthritis (CIA) in DBA/1 mice; type: in vivo; details: for severity of arthritis compared with control mice: single drug, oral daily for 10 consecutive days, ROFLUMILAST 1 mg/kg, PUMAFENTRINE hydrochloride 3 mg/kg, significant on days 35 and 39
Protocol: Collagen-induced arthritis (CIA) in DBA/1 mice: Mice were immunized intradermally with 200 μg/mouse of type II (CII) bovine collagen in Freund's complete adjuvant (FCA) and challenged intraperitoneally 21 days later with 200 μg/mouse of CII in saline. The mice were then administered orally either with 1 mg/kg/day of 3-Cyclopropylmethoxy-4-difluoromethoxy-N-(3,5-dichloropyrid-4-yl)-benzamide [INN: ROFLUMILAST], 3 mg/kg/day of (−)-cis-9-ethoxy-8-methoxy-2-methyl-1,2,3,4,4a,10b-hexahydro-6-(4-diisopropylaminocarbonylphenyl)-benzo[c][1,6]naphthyridine hydrochloride [INN: PUMAFENTRINE hydrochloride], 1 mg/kg/day of METHOTREXATE, or with combinations of METHOTREXATE and the PDE inhibitors for 10 consecutive days, starting 2 days after challenge injection. Control mice received either METHOTREXATE alone (1 mg/kg/day) or the vehicle only.
DBA/1 mice were obtained from Harlan Olac (Bicester, UK) and used 8 weeks old. CIA was induced as described previously (Ruchatz, H., et al., J Immunol. 1998, 160(11):5654-60). Briefly, mice were immunised by intradermal injection of 200 μg of acidified type II collagen (Sigma, Poole UK) emulsified in Freund's Complete adjuvant (FCA, Difco, Detroit, Mich., USA). Collagen (200 μg in PBS) was injected intraperitoneally on day 21 (challenge). Mice were individually ear marked for identification. They were monitored daily and scored every other day for signs of arthritis as follows: 0=normal, 1=erythema, 2=erythema plus swelling, 3=extension/loss of function, and total score=sum of four limbs. Paw thickness was measured with a dial-calliper (Kroeplin, Munich, Germany). […] (3 mg/kg, calculated for PUMAFENTRINE), METHOTREXATE (1 mg/kg), or combinations were administered orally daily by a gavage tube for 10 consecutive days. […] Treatment was withdrawn on day 33 and the mice monitored for a further 8 days. Influence of drug treatments on mean clinical index, arthritic paws and paw thickness were analysed by one-way ANOVA at days 31, 35, and 39. Between group differences in incidence of arthritis were analysed by chi-square test.

[2] = system: rheumatoid arthritis patients unresponsive to METHOTREXATE alone; details: combination with METHOTREXATE; cited from earlier work
[3] = system: rheumatoid arthritis patients with active disease despite METHOTREXATE treatment; details: in combination with a fixed low-dose (7.5 mg per week) of METHOTREXATE; small number of patients; cited from earlier work

For `CN(Cc1cnc2nc(N)nc(N)c2n1)c1ccc(C(=O)N[C@@H](CCC(=O)O)C(=O)O)cc1` [METHOTREXATE, N-(p{[(2,4-diamino-6-pteridinyl)methyl]methylamino}benzoyl)-L-(+)-glutamic acid], the “clinical improvement compared with control mice” value ([1]; METHOTREXATE alone 1 mg/kg/day, oral, 10 days) was “failed to produce a significant clinical improvement; also recorded: failed to demonstrate any clinical improvement”.
With `CCOc1cc2c(cc1OC)C(c1ccc(C(=O)N(C(C)C)C(C)C)cc1)=N[C@H]1CCN(C)C[C@@H]21.Cl` [PUMAFENTRINE hydrochloride, (−)-cis-9-ethoxy-8-methoxy-2-methyl-1,2,3,4,4a,10b-hexahydro-6-(4-diisopropylaminocarbonylphenyl)-benzo[c][1,6]naphthyridine hydrochloride] the “severity of arthritis compared with control mice” value ([1]; hydrochloride) was “effective in reducing the severity of arthritis; also recorded: significantly less severe disease”.
For `O=C(Nc1c(Cl)cncc1Cl)c1ccc(OC(F)F)c(OCC2CC2)c1` [ROFLUMILAST, 3-Cyclopropylmethoxy-4-difluoromethoxy-N-(3,5-dichloropyrid-4-yl)-benzamide], the “severity of arthritis compared with control mice” value [1] was “effective in reducing the severity of arthritis; also recorded: significantly less severe disease”.
For ETANERCEPT, the “efficacy in rheumatoid arthritis” value [2] is listed as “effective”.
For “INFLIXIMAB: chimeric human-murine monoclonal antibody, a specific inhibitor of tumour necrosis factor alpha”, the “degree and duration of efficacy” value [3] is given as “enhanced degree and duration of efficacy”.
